Experiments:
Apatinib + Foretinib = compound: N#CC1(c2ccc(NC(=O)c3cccnc3NCc3ccncc3)cc2)CCCC1 [Apatinib] + COc1cc2c(Oc3ccc(NC(=O)C4(C(=O)Nc5ccc(F)cc5)CC4)cc3F)ccnc2cc1OCCCN1CCOCC1 [Foretinib] (partner 0.25 µM); test: relative viability (nuclei count vs DMSO), 5 days (fraction); higher = more cells survive
Summary of the method: (§1)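 After 5 days of treatment, lung cancer cells in 1536-well plates were fixed and stained in a single step (final 0.05% Triton X-100, 1% formaldehyde, 1 ug/ml Hoechst) and their nuclei counted on 4× images. Treatment had been applied by pin tool the day after seeding as one drug alone or as a fixed anchor-drug dose with five library-drug doses (not always all listed) in √10 steps. Relative viability is the nuclei count of treated wells divided by that of vehicle wells, and values are medians of duplicate plates.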

Metformin + Navitoclax = compound: CN(C)C(=N)NC(=N)N [Metformin] + CC1(C)CCC(c2ccc(Cl)cc2)=C(CN2CCN(c3ccc(C(=O)NS(=O)(=O)c4ccc(N[C@H](CCN5CCOCC5)CSc5ccccc5)c(S(=O)(=O)C(F)(F)F)c4)cc3)CC2)C1 [Navitoclax] (partner 0.5 µM); test: as above
Summary of the method: as §1

| Cell Line | relative viability (Apatinib + Foretinib; first compound 0.08 µM) | relative viability (Apatinib + Foretinib; first compound 0.253 µM) | relative viability (Apatinib + Foretinib; first compound 0.8 µM) | relative viability (Apatinib + Foretinib; first compound 2.53 µM) | relative viability (Apatinib + Foretinib; first compound 8 µM) | relative viability (Metformin + Navitoclax; first compound 10 µM) | relative viability (Metformin + Navitoclax; first compound 31.62 µM) | relative viability (Metformin + Navitoclax; first compound 100 µM) | relative viability (Metformin + Navitoclax; first compound 316.23 µM) | relative viability (Metformin + Navitoclax; first compound 1000 µM) |
| --- | --- | --- | --- | --- | --- | --- | --- | --- | --- | --- |
| SK-MES-1 | 1.02 | 0.935 | 0.967 | 0.838 | 0.896 | 0.879 | 1.08 | 1.07 | 0.973 | 1.14 |
| NCI-H2170 | 1.04 | 0.958 | 0.978 | 0.983 | 0.846 | 0.579 | 0.526 | 0.575 | 0.497 | 0.507 |
| NCI-H1915 | 1.18 | 1.08 | 1.03 | 0.943 | 0.836 | – | 0.794 | 0.702 | 0.749 | 0.806 |
| HCC-366 | 0.977 | 0.904 | 0.966 | 0.93 | 0.963 | 1.12 | 1.12 | 1.06 | 0.991 | 1.06 |
| HOP-62 | 1.15 | 1.18 | 1.11 | 1.1 | 0.848 | 0.922 | 0.845 | 1.04 | 0.989 | 0.986 |
| RERF-LC-KJ | 0.875 | 0.931 | 0.857 | 0.737 | 0.733 | 1.08 | 1.15 | 0.752 | 0.833 | 0.745 |
| NCI-H2347 | 0.657 | 0.912 | 0.856 | – | 0.766 | 0.633 | 0.694 | 0.802 | 0.746 | 0.716 |
| PC-14 | 1.02 | 1.01 | 0.83 | 0.973 | 1.06 | 0.968 | 0.958 | 0.998 | 1 | 0.989 |
| IA-LM | 1.33 | 1.13 | 1.09 | 0.703 | 0.38 | – | 0.93 | 0.941 | 0.686 | 0.645 |
| NCI-H727 | 1.02 | 0.676 | 0.937 | 0.835 | 0.912 | 0.503 | 0.514 | 0.496 | 0.512 | 0.535 |
| NCI-H1975 | 1.13 | 0.907 | 0.84 | 0.862 | 0.783 | 1.23 | 1.32 | 1.28 | 1 | 1.23 |
| NCI-H2085 | 0.991 | 1.05 | 0.79 | 0.854 | 0.817 | 1.08 | 1.12 | 1.05 | 1.07 | 1.11 |
| Calu-6 | 0.994 | 0.915 | 0.799 | 0.766 | 0.791 | 0.726 | 0.784 | 0.855 | 0.7 | 0.619 |
| LC-2-ad | 0.935 | 0.89 | 0.904 | 0.947 | 0.868 | – | 0.26 | 0.167 | 0.18 | 0.311 |
| SW 900 | 1.06 | 0.921 | 0.822 | 0.584 | 0.605 | – | – | – | – | – |
| HCC-827 | 1.05 | 1.04 | 1.01 | 1 | 0.763 | – | 0.96 | 0.982 | 0.923 | 1.01 |
| EMC-BAC-2 | 1.08 | 1.12 | 1.04 | 0.919 | 0.858 | 1.1 | 1.17 | 1.1 | 1.09 | 1.15 |

— the supplement of paper PMC10307832
